In ChEMBL document CHEMBL5329179, “Inhibitory effect of γ-ray-modified hydroxymethylated baicalins on NO production” (Bioorg Med Chem Lett, 2023):
pIC50: −log10 of the molar value. Converted amounts (≈) assume the structure as drawn. The source made the active and inactive calls. No cut-off for these calls is given here.

Assays:
Format in all cases: functional, cell-based
RAW264.7 [1] = assay: Antiinflammatory activity against LPS-stimulated mouse RAW264.7 cells assessed as reduction in NO production
[2] = Antiinflammatory activity against LPS-stimulated dog DH82 cells assessed as reduction in NO production; conditions: Canis lupus familiaris
DH82 = assay: Antiinflammatory activity against LPS-stimulated dog DH82 cells assessed as reduction in iNOS mRNA expression level at 20 uM by qRT-PCR analysis; conditions: Canis lupus familiaris
RAW264.7 [3] = assay: Antiinflammatory activity against LPS-stimulated mouse RAW264.7 cells assessed as reduction in iNOS mRNA expression level at 20 uM by qRT-PCR analysis
RAW264.7 [4] = assay: Antiinflammatory activity against mouse RAW264.7 cells assessed as reduction in NO production compound photoirradiated using 50 kGy gamma-ray; conditions: RAW264.7, light or radiation study

| pIC50 (RAW264.7 [1]) | pIC50 [2] | IC50 (RAW264.7 [4]) [µg/mL] | Compound | Activity (DH82) | Activity (RAW264.7 [3]) |
| --- | --- | --- | --- | --- | --- |
| 4.64 | 4.60 | – | O=C1C[C@](CO)(c2ccccc2)Oc2cc(O[C@@H]3O[C@H](C(=O)O)[C@@H](O)[C@H](O)[C@H]3O)c(O)c(O)c21 | Active | Active |
| 4.72 | 4.72 | – | O=C1C[C@@](CO)(c2ccccc2)Oc2cc(O[C@@H]3O[C@H](C(=O)O)[C@@H](O)[C@H](O)[C@H]3O)c(O)c(O)c21 | Active | Active |
| 3.80 | < 3.70 | 35.2 (≈ 78.9 µM) | O=C(O)[C@H]1O[C@@H](Oc2cc3oc(-c4ccccc4)cc(=O)c3c(O)c2O)[C@H](O)[C@@H](O)[C@@H]1O [BAICALIN] | Active | Active |
| 4.52 | 4.51 | – | O=c1cc(-c2ccccc2)oc2cc(O)c(O)c(O)c12 [BAICALEIN] | – | – |
| 4.31 | 4.30 | – | COc1c(O)cc2oc(-c3ccccc3)cc(=O)c2c1O [OROXYLIN A] | – | – |
| 4.17 | 4.24 | – | O=C(O)[C@H]1O[C@@H](Oc2cc3c(c(O)c2O)C(=O)[C@@H](CO)[C@](CO)(c2ccccc2)O3)[C@H](O)[C@@H](O)[C@@H]1O | – | – |

| Compound | pIC50 (RAW264.7 [1]) | pIC50 [2] | IC50 (RAW264.7 [4]) [µg/mL] | Activity (DH82) | Activity (RAW264.7 [3]) |
| --- | --- | --- | --- | --- | --- |
| O=C1C[C@](CO)(c2ccccc2)Oc2cc3c(c(O)c21)OOC3 | < 3.70 | < 3.70 | – | – | – |
| N=C(N)NN [PIMAGEDINE] | 4.61 | 4.68 | – | – | – |
